Assay results taken from the supplement of paper PMC10307832.

What was measured:
Assay in all cases: relative viability (nuclei count vs DMSO), 5 days (fraction); higher = more cells survive
[1] = tested on: A549
How it was run: (§1)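 Relative viability divides the nuclei count in treated wells by that in vehicle wells. Lung cancer cell lines were seeded in 1536-well plates, dosed by pin tool the next day, and fixed and stained after 5 days in one step with final 0.05% Triton X-100, 1% formaldehyde and 1 ug/ml Hoechst. Dosing was a single drug or a fixed anchor-drug dose plus five library-drug doses (not always all listed) in √10 steps, and values are medians of duplicate plates imaged at 4×.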

[2] = tested on: Calu-6
How it was run: as §1

[3] = tested on: EBC-1
How it was run: as §1

[4] = tested on: IA-LM
How it was run: as §1

[5] = tested on: NCI-H1299
How it was run: as §1

[6] = tested on: NCI-H1563
How it was run: as §1

[7] = tested on: NCI-H1623
How it was run: as §1

[8] = tested on: NCI-H1703
How it was run: as §1

[9] = tested on: NCI-H2342
How it was run: as §1

[10] = tested on: SW 900
How it was run: as §1

[11] = tested on: NCI-H1648
How it was run: as §1

[12] = tested on: NCI-H522
How it was run: as §1

Q: With `O=c1[nH]c2ccccc2n1C1CCN(CCCC(c2ccc(F)cc2)c2ccc(F)cc2)CC1` [Pimozide] + COc1cc2c(Oc3ccc(NC(=O)C4(C(=O)Nc5ccc(F)cc5)CC4)cc3F)ccnc2cc1OCCCN1CCOCC1 [Foretinib] (partner 0.25 µM) as the compound, how does the relative viability ([1]; first compound 0.08 µM) read?
A: 0.891

Q: And the relative viability ([1]; first compound 0.253 µM)?
A: 0.988

Q: And the relative viability ([1]; first compound 0.8 µM)?
A: 1.04

Q: What about the relative viability ([1]; first compound 2.53 µM) of the same compound?
A: 0.949

Q: What about the relative viability ([1]; first compound 8 µM) of the same compound?
A: 0.728

Q: What about the relative viability ([2]; first compound 0.08 µM) of the same compound?
A: 0.887

Q: What about the relative viability ([2]; first compound 0.253 µM) of the same compound?
A: 0.925

Q: And the relative viability ([2]; first compound 0.8 µM)?
A: 0.819

Q: And the relative viability ([2]; first compound 2.53 µM)?
A: 0.914

Q: And the relative viability ([2]; first compound 8 µM)?
A: 0.822

Q: And the relative viability ([3]; first compound 0.08 µM)?
A: 0.0944

Q: What about the relative viability ([3]; first compound 0.253 µM) of the same compound?
A: 0.102

Q: And the relative viability ([3]; first compound 0.8 µM)?
A: 0.0973

Q: And the relative viability ([3]; first compound 2.53 µM)?
A: 0.104

Q: What about the relative viability ([3]; first compound 8 µM) of the same compound?
A: 0.12

Q: And the relative viability ([4]; first compound 0.08 µM)?
A: 1.16

Q: What about the relative viability ([4]; first compound 0.253 µM) of the same compound?
A: 1.15

Q: And the relative viability ([4]; first compound 0.8 µM)?
A: 1.16

Q: What about the relative viability ([4]; first compound 2.53 µM) of the same compound?
A: 1.19

Q: What about the relative viability ([4]; first compound 8 µM) of the same compound?
A: 1.17

Q: What about the relative viability ([5]; first compound 0.08 µM) of the same compound?
A: 1.11

Q: And the relative viability ([5]; first compound 0.253 µM)?
A: 1.12

Q: What about the relative viability ([5]; first compound 0.8 µM) of the same compound?
A: 1.07

Q: What about the relative viability ([5]; first compound 2.53 µM) of the same compound?
A: 1.07

Q: And the relative viability ([5]; first compound 8 µM)?
A: 1.04

Q: What about the relative viability ([6]; first compound 0.08 µM) of the same compound?
A: 0.969

Q: What about the relative viability ([6]; first compound 0.253 µM) of the same compound?
A: 0.849

Q: What about the relative viability ([6]; first compound 0.8 µM) of the same compound?
A: 0.832

Q: And the relative viability ([6]; first compound 2.53 µM)?
A: 0.877

Q: And the relative viability ([6]; first compound 8 µM)?
A: 0.832

Q: And the relative viability ([7]; first compound 0.08 µM)?
A: 0.505

Q: What about the relative viability ([7]; first compound 0.253 µM) of the same compound?
A: 0.879

Q: What about the relative viability ([7]; first compound 0.8 µM) of the same compound?
A: 0.81

Q: And the relative viability ([7]; first compound 2.53 µM)?
A: 0.88

Q: What about the relative viability ([7]; first compound 8 µM) of the same compound?
A: 0.889

Q: And the relative viability ([8]; first compound 0.08 µM)?
A: 0.394

Q: And the relative viability ([8]; first compound 0.253 µM)?
A: 0.272

Q: What about the relative viability ([8]; first compound 0.8 µM) of the same compound?
A: 0.375

Q: And the relative viability ([8]; first compound 2.53 µM)?
A: 0.37

Q: What about the relative viability ([8]; first compound 8 µM) of the same compound?
A: 0.336

Q: What about the relative viability ([9]; first compound 0.08 µM) of the same compound?
A: 0.92

Q: What about the relative viability ([9]; first compound 0.253 µM) of the same compound?
A: 0.973

Q: And the relative viability ([9]; first compound 0.8 µM)?
A: 0.931

Q: And the relative viability ([9]; first compound 2.53 µM)?
A: 0.975

Q: What about the relative viability ([9]; first compound 8 µM) of the same compound?
A: 1.07

Q: And the relative viability ([10]; first compound 0.08 µM)?
A: 0.877

Q: And the relative viability ([10]; first compound 0.253 µM)?
A: 0.956

Q: And the relative viability ([10]; first compound 0.8 µM)?
A: 0.668

Q: What about the relative viability ([10]; first compound 2.53 µM) of the same compound?
A: 0.746

Q: What about the relative viability ([10]; first compound 8 µM) of the same compound?
A: 1.03

Q: For `Cc1cnc(-c2cnc(NCCNc3ccc(C#N)cn3)nc2-c2ccc(Cl)cc2Cl)[nH]1` + COc1cc2c(Oc3ccc(NC(=O)C4(C(=O)Nc5ccc(F)cc5)CC4)cc3F)ccnc2cc1OCCCN1CCOCC1 [Foretinib] (partner 0.25 µM), which relative viability ([1]; first compound 0.08 µM) is on record?
A: 0.984

Q: What about the relative viability ([1]; first compound 0.253 µM) of the same compound?
A: 0.963

Q: What about the relative viability ([1]; first compound 0.8 µM) of the same compound?
A: 1.02

Q: What about the relative viability ([1]; first compound 2.53 µM) of the same compound?
A: 0.451

Q: What about the relative viability ([2]; first compound 0.08 µM) of the same compound?
A: 0.906

Q: And the relative viability ([2]; first compound 0.253 µM)?
A: 0.826

Q: And the relative viability ([2]; first compound 0.8 µM)?
A: 0.874

Q: And the relative viability ([2]; first compound 2.53 µM)?
A: 0.784

Q: And the relative viability ([3]; first compound 0.08 µM)?
A: 0.0986

Q: And the relative viability ([3]; first compound 0.253 µM)?
A: 0.105

Q: What about the relative viability ([3]; first compound 0.8 µM) of the same compound?
A: 0.102

Q: And the relative viability ([3]; first compound 2.53 µM)?
A: 0.112

Q: And the relative viability ([4]; first compound 0.08 µM)?
A: 0.95

Q: What about the relative viability ([4]; first compound 0.253 µM) of the same compound?
A: 1.09

Q: And the relative viability ([4]; first compound 0.8 µM)?
A: 1.44

Q: And the relative viability ([4]; first compound 2.53 µM)?
A: 0.988

Q: What about the relative viability ([5]; first compound 0.08 µM) of the same compound?
A: 1.11

Q: What about the relative viability ([5]; first compound 0.253 µM) of the same compound?
A: 1.05

Q: What about the relative viability ([5]; first compound 0.8 µM) of the same compound?
A: 1.09

Q: What about the relative viability ([5]; first compound 2.53 µM) of the same compound?
A: 1.06

Q: What about the relative viability ([6]; first compound 0.08 µM) of the same compound?
A: 0.925

Q: And the relative viability ([6]; first compound 0.253 µM)?
A: 0.885

Q: And the relative viability ([6]; first compound 0.8 µM)?
A: 0.951

Q: What about the relative viability ([6]; first compound 2.53 µM) of the same compound?
A: 1.01

Q: What about the relative viability ([7]; first compound 0.08 µM) of the same compound?
A: 0.785

Q: And the relative viability ([7]; first compound 0.253 µM)?
A: 0.828

Q: What about the relative viability ([7]; first compound 0.8 µM) of the same compound?
A: 0.821

Q: What about the relative viability ([7]; first compound 2.53 µM) of the same compound?
A: 0.849

Q: What about the relative viability ([8]; first compound 0.08 µM) of the same compound?
A: 0.333

Q: And the relative viability ([8]; first compound 0.253 µM)?
A: 0.383

Q: What about the relative viability ([8]; first compound 0.8 µM) of the same compound?
A: 0.362

Q: What about the relative viability ([8]; first compound 2.53 µM) of the same compound?
A: 0.433

Q: What about the relative viability ([9]; first compound 0.08 µM) of the same compound?
A: 0.974

Q: And the relative viability ([9]; first compound 0.253 µM)?
A: 0.903

Q: And the relative viability ([9]; first compound 0.8 µM)?
A: 1.03

Q: And the relative viability ([9]; first compound 2.53 µM)?
A: 1.07

Q: And the relative viability ([10]; first compound 0.08 µM)?
A: 0.781

Q: What about the relative viability ([10]; first compound 0.253 µM) of the same compound?
A: 0.78

Q: What about the relative viability ([10]; first compound 0.8 µM) of the same compound?
A: 0.789

Q: What about the relative viability ([10]; first compound 2.53 µM) of the same compound?
A: 0.717

Q: Which relative viability ([7]; first compound 5 µM) does the source give for `O=C(O)CCCCC(CCSCc1ccccc1)SCc1ccccc1` (centres undefined) [CPI-613] + Cc1cc(Nc2cc(N3CCN(C)CC3)nc(Sc3ccc(NC(=O)C4CC4)cc3)n2)n[nH]1 [Tozasertib] (partner 0.1 µM) here?
A: 0.442

Q: And the relative viability ([7]; first compound 15.81 µM)?
A: 0.387

Q: And the relative viability ([7]; first compound 50 µM)?
A: 0.421

Q: What about the relative viability ([7]; first compound 158.11 µM) of the same compound?
A: 0.417

Q: And the relative viability ([7]; first compound 500 µM)?
A: 0.426

Q: What about the relative viability ([11]; first compound 5 µM) of the same compound?
A: 0.473

Q: And the relative viability ([11]; first compound 15.81 µM)?
A: 0.312

Q: What about the relative viability ([11]; first compound 50 µM) of the same compound?
A: 0.589

Q: What about the relative viability ([11]; first compound 500 µM) of the same compound?
A: 0.391

Q: What about the relative viability ([9]; first compound 5 µM) of the same compound?
A: 0.523

Q: What about the relative viability ([9]; first compound 15.81 µM) of the same compound?
A: 0.527

Q: And the relative viability ([9]; first compound 50 µM)?
A: 0.511

Q: And the relative viability ([9]; first compound 158.11 µM)?
A: 0.484

Q: And the relative viability ([9]; first compound 500 µM)?
A: 0.625

Q: And the relative viability ([12]; first compound 5 µM)?
A: 0.512

Q: And the relative viability ([12]; first compound 15.81 µM)?
A: 0.563

Q: And the relative viability ([12]; first compound 50 µM)?
A: 0.573

Q: And the relative viability ([12]; first compound 158.11 µM)?
A: 0.419

Q: What about the relative viability ([12]; first compound 500 µM) of the same compound?
A: 0.325

Q: What about the relative viability ([10]; first compound 5 µM) of the same compound?
A: 0.511

Q: And the relative viability ([10]; first compound 15.81 µM)?
A: 0.557

Q: And the relative viability ([10]; first compound 50 µM)?
A: 0.473

Q: What about the relative viability ([10]; first compound 158.11 µM) of the same compound?
A: 0.199

Q: And the relative viability ([10]; first compound 500 µM)?
A: 0.0732
